In PubChem BioAssay AID720514 (Broad Institute, 2013):

System: U2OS PGC1a acetylation, AlphaLISA, overnight
Assay: reduced cellular PGC1a acetyl-lysine signal – cell-based, cherry-picked samples, dose response (AID 720514);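 further: actives lower the acetylation signal so they count as inhibitors of PGC1a acetylation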

Structure (SMILES)	AC50 [µM]
C[C@H]1[C@@H](OS(=O)(=O)O)C[C@@H]2C[C@H]([C@@H](O)c3cc(=O)[nH]c(=O)[nH]3)NC3=NC[C@H]1N32	3.65
C[C@H]1CN([C@@H](C)CO)C(=O)Cc2cc(NC(=O)Nc3ccccc3)ccc2O[C@@H]1CN(C)Cc1ccccc1	21.5
